Test results from paper doi:10.1101/2025.05.27.25328359, “OSBPL11 is an African-specific locus associated with 25-hydroxyvitamin D concentrations and cardiometabolic health” (medRxiv, 2025).

Molecular target: T1, OSBPL11 (OSBPL11-myc-His) (Homo sapiens, UniProt Q9BXB4)
T1 construct: full length, C-terminal myc-His tag (pcDNA3.1(+)myc/his C), transiently expressed in 293T cells; 100,000 g supernatant (S100) of lysate, not purified
T1 sequence (Q9BXB4 1-747): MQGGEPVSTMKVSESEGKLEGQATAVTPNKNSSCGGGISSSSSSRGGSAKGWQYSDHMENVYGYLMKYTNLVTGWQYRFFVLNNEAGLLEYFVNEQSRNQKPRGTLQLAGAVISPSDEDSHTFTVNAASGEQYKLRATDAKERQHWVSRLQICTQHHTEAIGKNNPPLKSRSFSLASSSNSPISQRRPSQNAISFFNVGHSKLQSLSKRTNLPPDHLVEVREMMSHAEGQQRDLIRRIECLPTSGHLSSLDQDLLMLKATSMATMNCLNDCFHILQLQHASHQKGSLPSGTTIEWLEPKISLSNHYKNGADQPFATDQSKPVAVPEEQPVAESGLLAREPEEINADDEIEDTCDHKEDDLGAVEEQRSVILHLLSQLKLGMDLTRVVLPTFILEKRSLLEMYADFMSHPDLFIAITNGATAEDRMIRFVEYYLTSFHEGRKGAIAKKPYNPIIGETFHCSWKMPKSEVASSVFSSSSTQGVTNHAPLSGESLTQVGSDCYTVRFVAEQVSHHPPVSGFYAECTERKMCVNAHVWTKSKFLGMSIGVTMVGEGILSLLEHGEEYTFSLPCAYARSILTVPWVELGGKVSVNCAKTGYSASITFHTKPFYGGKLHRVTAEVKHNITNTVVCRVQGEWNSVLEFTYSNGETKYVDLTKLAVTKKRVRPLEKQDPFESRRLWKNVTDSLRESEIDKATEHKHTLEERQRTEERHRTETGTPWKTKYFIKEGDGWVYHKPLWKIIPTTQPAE
Assay: [3H]-25-hydroxycholesterol competition binding, charcoal/dextran, S100 lysate
Type: biochemical

- Ki: 32 nM
Compound: C[C@H](CCCC(C)(C)O)[C@H]1CC[C@H]2[C@@H]3CC=C4C[C@@H](O)CC[C@]4(C)[C@H]3CC[C@]12C [25-hydroxycholesterol]
